Test results from PubChem BioAssay AID330 (DTP/NCI, 2004).
Values joined by “and” are separate entries in the source; they are usually repeats but may differ in a detail not shown here. Identical values can stand only once. Toxic doses and inconclusive results are not listed.

System: P388 leukemia ip, CD2F1 mice, survival T/C
Test: NCI In Vivo Anticancer Drug Screen. Data for tumor model P388 Leukemia (intraperitoneal) in CD2F1 (CDF1) mice
Conditions: endpoint: median survival time, higher = longer survival
Method in brief: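 Mice carrying the transplanted tumor received test compound or vehicle. Survival was recorded in each group, and the value is the treated-group measurement divided by that of the vehicle-treated control group.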

[1] = dose: 50.0 mg/kg/injection, schedule: Q01DX005 (ip), vehicle: Klucel (hydroxypropylcellulose) (HPC)
[2] = dose: 100.0 mg/kg/injection, schedule: Q01DX005 (ip), vehicle: Klucel (hydroxypropylcellulose) (HPC)
[3] = dose: 60.0 mg/kg/injection, schedule: Q01DX005 (ip), vehicle: saline with Tween-80
[4] = dose: 120.0 mg/kg/injection, schedule: Q01DX005 (ip), vehicle: saline with Tween-80
[5] = dose: 60.0 mg/kg/injection, schedule: Q01DX005 (ip), vehicle: Klucel (hydroxypropylcellulose) (HPC)
[6] = dose: 60.0 mg/kg/injection, schedule: Q01DX005 (ip), vehicle: saline
[7] = dose: 240.0 mg/kg/injection, schedule: Q01DX005 (ip), vehicle: saline with Tween-80
[8] = dose: 50.0 mg/kg/injection, schedule: Q01DX005 (ip), vehicle: saline with Tween-80
[9] = dose: 100.0 mg/kg/injection, schedule: Q01DX005 (ip), vehicle: saline with Tween-80
[10] = dose: 200.0 mg/kg/injection, schedule: Q01DX005 (ip), vehicle: saline with Tween-80
[11] = dose: 100.0 mg/kg/injection, schedule: Q01DX009 (ip), vehicle: saline with Tween-80
[12] = dose: 50.0 mg/kg/injection, schedule: Q01DX009 (ip), vehicle: suspension in saline
[13] = dose: 100.0 mg/kg/injection, schedule: Q01DX009 (ip), vehicle: suspension in saline

In the case of C=C(Br)C(=NC(C)(C)C)Nc1ccccc1Cl, the T/C (dose: 6.25 mg/kg/injection, schedule: Q01DX005 (ip), vehicle: Klucel (hydroxypropylcellulose) (HPC)) is reported as 98 % of control, the T/C (dose: 12.5 mg/kg/injection, schedule: Q01DX005 (ip), vehicle: Klucel (hydroxypropylcellulose) (HPC)) is reported as 109 % of control and the T/C (dose: 25.0 mg/kg/injection, schedule: Q01DX005 (ip), vehicle: Klucel (hydroxypropylcellulose) (HPC)) is reported as 111 % of control and 120 % of control and 118 % of control. The T/C [1] was 118 % of control and the T/C [2] was 110 % of control.
For O=C(O)/C(Cl)=C(\Cl)C(=O)Nc1ccc(Br)cc1, the T/C (dose: 15.0 mg/kg/injection, schedule: Q01DX005 (ip), vehicle: saline with Tween-80) was 102 % of control, the T/C (dose: 30.0 mg/kg/injection, schedule: Q01DX005 (ip), vehicle: saline with Tween-80) was 102 % of control and the T/C [3] was 99 % of control and 111 % of control. For the same compound, the T/C [4] was 104 % of control.
CC(C)=NNC1=NC(C)(C)P(=O)(NNc2ncccn2)S1 (stereo not given) was tested, and the T/C (dose: 15.0 mg/kg/injection, schedule: Q01DX005 (ip), vehicle: Klucel (hydroxypropylcellulose) (HPC)) was 107 % of control, the T/C (dose: 30.0 mg/kg/injection, schedule: Q01DX005 (ip), vehicle: Klucel (hydroxypropylcellulose) (HPC)) was 105 % of control and the T/C [5] was 93 % of control. The T/C [6] was 98 % of control.
In the case of CCCCC1(C(O)CC)Sc2ccccc2N1C (stereo not given), the T/C [3] is reported as 100 % of control, the T/C [4] is reported as 101 % of control and the T/C [7] is reported as 110 % of control.
For O=S(=O)(c1ccccc1)N1CC2(CN(S(=O)(=O)c3ccccc3)c3ccccc31)CN(S(=O)(=O)c1ccccc1)c1ccccc1N(S(=O)(=O)c1ccccc1)C2, the T/C (dose: 100.0 mg/kg/injection, schedule: Q01DX001 (ip), vehicle: saline with Tween-80) was 90 % of control, the T/C (dose: 200.0 mg/kg/injection, schedule: Q01DX001 (ip), vehicle: saline with Tween-80) was 87 % of control and the T/C (dose: 400.0 mg/kg/injection, schedule: Q01DX001 (ip), vehicle: saline with Tween-80) was 88 % of control.
For CCCCOC(=O)NC(=O)c1cc2ccc(N(CC)CC)cc2oc1=O, the T/C [3] was 95 % of control, the T/C [4] was 87 % of control and the T/C [7] was 87 % of control.
CCN=C1C=C/C(=C(/c2ccc(NCC)c(C)c2)c2cc(O)c(S(=O)(=O)O)cc2S(=O)(=O)O)C=C1C was tested, and the T/C [6] was 107 % of control, the T/C (dose: 120.0 mg/kg/injection, schedule: Q01DX005 (ip), vehicle: saline) was 106 % of control and the T/C (dose: 240.0 mg/kg/injection, schedule: Q01DX005 (ip), vehicle: saline) was 102 % of control.
With O=C(Nc1cccc2c1C(=O)c1cccc(Nc3ccc(NC(=O)c4ccccc4)c4c3C(=O)c3ccccc3C4=O)c1C2=O)c1ccccc1 the T/C [8] was 95 % of control, the T/C [9] was 89 % of control and the T/C [10] was 93 % of control.
In the case of C=C(C)C1CC=C(/C=N/O)CC1 (stereo not given), the T/C [11] is reported as 100 % of control and the T/C (dose: 400.0 mg/kg/injection, schedule: Q01DX009 (ip), vehicle: saline with Tween-80) is reported as 91 % of control.
In the case of CCOC(=O)C(/N=N\c1nn[nH]n1)/N=N/c1ncn[nH]1 (stereo not given), the T/C (dose: 100.0 mg/kg/injection, schedule: Q01DX001 (ip), vehicle: suspension in saline) is reported as 102 % of control, the T/C (dose: 200.0 mg/kg/injection, schedule: Q01DX001 (ip), vehicle: suspension in saline) is reported as 102 % of control and the T/C (dose: 400.0 mg/kg/injection, schedule: Q01DX001 (ip), vehicle: suspension in saline) is reported as 107 % of control.
In the case of C/C(=N\NC(=S)N1CCCCCC1)c1cccc2cccnc12, the T/C [8] is reported as 107 % of control, the T/C [9] is reported as 103 % of control and the T/C [10] is reported as 116 % of control.
In the case of CC(C)=NOC(=O)Nc1ccc(F)cc1, the T/C [5] is reported as 93 % of control, the T/C (dose: 120.0 mg/kg/injection, schedule: Q01DX005 (ip), vehicle: Klucel (hydroxypropylcellulose) (HPC)) is reported as 103 % of control and the T/C (dose: 240.0 mg/kg/injection, schedule: Q01DX005 (ip), vehicle: Klucel (hydroxypropylcellulose) (HPC)) is reported as 106 % of control.
COc1ccc2c(c1)N(S(=O)(=O)c1ccc(C)cc1)C/C(=C\N1CCN(c3ccccc3)CC1)C2=O was tested, and the T/C [1] was 96 % of control, the T/C [2] was 98 % of control and the T/C (dose: 200.0 mg/kg/injection, schedule: Q01DX005 (ip), vehicle: Klucel (hydroxypropylcellulose) (HPC)) was 91 % of control.
In the case of CCCCCCC(Nc1ncnc(Cl)c1N)C(C)O (stereo not given), the T/C (dose: 12.5 mg/kg/injection, schedule: Q01DX009 (ip), vehicle: saline with Tween-80) is reported as 97 % of control and the T/C (dose: 25.0 mg/kg/injection, schedule: Q01DX009 (ip), vehicle: saline with Tween-80) is reported as 100 % of control.
Cc1cc(=O)c2ccccc2s1 was tested, and the T/C (dose: 50.0 mg/kg/injection, schedule: Q01DX009 (ip), vehicle: saline with Tween-80) was 104 % of control and the T/C [11] was 113 % of control.
With CN=C(C)c1c(O)n(-c2ccccc2)[nH]c1=O the T/C (dose: 100.0 mg/kg/injection, schedule: Q04DX002 (ip), vehicle: Klucel (hydroxypropylcellulose) (HPC)) was 96 % of control, the T/C (dose: 200.0 mg/kg/injection, schedule: Q04DX002 (ip), vehicle: Klucel (hydroxypropylcellulose) (HPC)) was 102 % of control and the T/C (dose: 400.0 mg/kg/injection, schedule: Q04DX002 (ip), vehicle: Klucel (hydroxypropylcellulose) (HPC)) was 90 % of control.
In the case of CC(=O)OC1CC23COC(=O)C4OC45CCO/C(=C/C/C=C\C(=O)OC4C[C@@H](OC2C=C1C)[C@@]1(CO1)[C@]43C)C5O (stereo not given in full), the T/C (dose: 0.32 mg/kg/injection, schedule: Q01DX009 (ip), vehicle: Klucel (hydroxypropylcellulose) (HPC)) is reported as 100 % of control, the T/C (dose: 125.0 micrograms/kg/injection, schedule: Q01DX009 (ip), vehicle: Klucel (hydroxypropylcellulose) (HPC)) is reported as 110 % of control and the T/C (dose: 250.0 micrograms/kg/injection, schedule: Q01DX009 (ip), vehicle: Klucel (hydroxypropylcellulose) (HPC)) is reported as 118 % of control. The T/C (dose: 1000.0 micrograms/kg/injection, schedule: Q01DX009 (ip), vehicle: Klucel (hydroxypropylcellulose) (HPC)) was 152 % of control.
In the case of Nc1c(C(=O)Nc2ccc(NC(=O)c3ccc4c(c3N)C(=O)c3ccccc3C4=O)c3c2C(=O)c2ccccc2C3=O)ccc2c1C(=O)c1ccccc1C2=O, the T/C [12] is reported as 103 % of control, the T/C [13] is reported as 106 % of control and the T/C (dose: 200.0 mg/kg/injection, schedule: Q01DX009 (ip), vehicle: suspension in saline) is reported as 103 % of control.
For O=C1NC(=O)C2(CC3CCCCC3CC2c2ccccc2)N1 (stereo not given), the T/C (dose: 100.0 mg/kg/injection, schedule: Q04DX003 (ip), vehicle: saline with Tween-80) was 89 % of control, the T/C (dose: 200.0 mg/kg/injection, schedule: Q04DX003 (ip), vehicle: saline with Tween-80) was 91 % of control and the T/C (dose: 400.0 mg/kg/injection, schedule: Q04DX003 (ip), vehicle: saline with Tween-80) was 100 % of control.
In the case of C=C1C(=O)O[C@H]2C=C(C)[C@H]3[C@@H](OC(C)=O)C[C@@](C)(O)[C@@H]3C[C@H]12, the T/C (dose: 12.5 mg/kg/injection, schedule: Q01DX009 (ip), vehicle: suspension in saline) is reported as 106 % of control, the T/C (dose: 25.0 mg/kg/injection, schedule: Q01DX009 (ip), vehicle: suspension in saline) is reported as 106 % of control and the T/C [12] is reported as 103 % of control. The T/C [13] was 114 % of control.
Cc1ccccc1C(=O)c1cnc(C)n1Cc1ccccc1 was tested, and the T/C [3] was 96 % of control, the T/C [4] was 98 % of control and the T/C [7] was 98 % of control.
CC1=C2CC(=O)OC(c3ccoc3)C2(C)CCC1C1(CC(=O)O)C2COC(=O)CC2OC1(C)C (stereo not given) was tested, and the T/C (dose: 0.75 mg/kg/injection, schedule: Q01DX009 (ip), vehicle: saline + alcohol) was 99 % of control, the T/C (dose: 1.5 mg/kg/injection, schedule: Q01DX009 (ip), vehicle: saline + alcohol) was 97 % of control and the T/C (dose: 3.0 mg/kg/injection, schedule: Q01DX009 (ip), vehicle: saline + alcohol) was 106 % of control. The T/C (dose: 6.0 mg/kg/injection, schedule: Q01DX009 (ip), vehicle: saline + alcohol) was 101 % of control.
For FC(F)(F)c1cc(Cl)nc(Cl)n1, the T/C (dose: 6.0 mg/kg/injection, schedule: Q01DX005 (ip), vehicle: saline with Tween-80) was 106 % of control, the T/C (dose: 12.0 mg/kg/injection, schedule: Q01DX005 (ip), vehicle: saline with Tween-80) was 97 % of control and the T/C (dose: 25.0 mg/kg/injection, schedule: Q01DX005 (ip), vehicle: saline with Tween-80) was 92 % of control.
COc1ccc(OC)c(/C=C/C2=C(C)C(=O)CC(c3cc(OC)ccc3OC)C2C)c1 (stereo not given) was tested, and the T/C (dose: 100.0 mg/kg/injection, schedule: Q04DX003 (ip), vehicle: Klucel (hydroxypropylcellulose) (HPC)) was 90 % of control and the T/C (dose: 200.0 mg/kg/injection, schedule: Q04DX003 (ip), vehicle: Klucel (hydroxypropylcellulose) (HPC)) was 88 % of control.
With C(/CSC/C=N/Nc1ccccc1)=N\Nc1ccccc1 the T/C (dose: 50.0 mg/kg/injection, schedule: Q01DX009 (ip), vehicle: saline) was 103 % of control and the T/C (dose: 100.0 mg/kg/injection, schedule: Q01DX009 (ip), vehicle: saline) was 103 % of control.
[N-]=[N+]=Nc1ccc(NCCCCCC(=O)ON2C(=O)CCC2=O)c([N+](=O)[O-])c1 was tested, and the T/C [8] was 106 % of control, the T/C [9] was 106 % of control and the T/C [10] was 106 % of control.
